In patent US12448395B2 (BRISTOL-MYERS SQUIBB COMPANY, priority 2019, dated 2025):

Biological target: T1, human TLR9 (Homo sapiens, UniProt Q9NR96)
T1 sequence (Q9NR96 26-1032): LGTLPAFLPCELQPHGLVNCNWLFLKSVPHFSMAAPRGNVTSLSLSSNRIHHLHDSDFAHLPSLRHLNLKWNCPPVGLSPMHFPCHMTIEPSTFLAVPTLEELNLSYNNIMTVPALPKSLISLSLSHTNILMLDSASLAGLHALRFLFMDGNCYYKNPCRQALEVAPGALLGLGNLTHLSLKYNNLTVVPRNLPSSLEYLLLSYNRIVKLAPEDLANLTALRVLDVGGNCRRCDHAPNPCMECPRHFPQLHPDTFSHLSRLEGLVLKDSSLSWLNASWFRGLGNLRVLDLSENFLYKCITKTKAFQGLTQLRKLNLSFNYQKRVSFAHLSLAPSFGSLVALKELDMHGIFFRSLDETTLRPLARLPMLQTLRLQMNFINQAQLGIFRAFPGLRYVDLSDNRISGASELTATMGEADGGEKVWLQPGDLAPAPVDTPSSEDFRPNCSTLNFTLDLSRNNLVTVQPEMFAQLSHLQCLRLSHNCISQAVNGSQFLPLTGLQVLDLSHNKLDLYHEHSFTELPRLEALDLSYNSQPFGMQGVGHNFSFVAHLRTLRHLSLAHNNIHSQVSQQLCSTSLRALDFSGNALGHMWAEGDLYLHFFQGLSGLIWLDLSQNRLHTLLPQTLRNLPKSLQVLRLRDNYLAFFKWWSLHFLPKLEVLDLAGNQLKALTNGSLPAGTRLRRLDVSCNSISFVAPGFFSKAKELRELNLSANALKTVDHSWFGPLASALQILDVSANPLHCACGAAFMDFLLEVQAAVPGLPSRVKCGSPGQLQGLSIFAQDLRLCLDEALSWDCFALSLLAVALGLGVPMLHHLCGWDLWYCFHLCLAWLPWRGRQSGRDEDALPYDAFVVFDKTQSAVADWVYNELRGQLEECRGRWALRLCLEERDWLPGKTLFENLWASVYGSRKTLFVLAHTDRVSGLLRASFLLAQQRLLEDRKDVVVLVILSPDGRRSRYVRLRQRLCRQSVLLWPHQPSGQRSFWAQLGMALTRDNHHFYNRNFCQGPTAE
Experiment: TLR9 inhibition reporter assay (HEK-Blue SEAP, ODN2006 stimulation)
Assay type: cell-based
Conditions: HEK-Blue cells overexpressing human TLR9, ODN2006 5 nM
Method: TLR7/8/9 Inhibition Reporter Assays
HEK-Blue™-cells (Invivogen) overexpressing human TLR7, TLR8 or TLR9 receptors were used for screening inhibitors of these receptors using an inducible SEAP (secreted embryonic alkaline phosphatase) reporter gene under the control of the IFN-β minimal promoter fused to five NF-κB and AP-1-binding sites. Briefly, cells are seeded into Greiner 384 well plates (15000 cells per well for TLR7, 20,000 for TLR8 and 25,000 for TLR9) and then treated with test compounds in DMSO to yield a final dose response concentration range of 0.05 nM-50 μM. After a 30 minute compound pre-treatment at room temperature, the cells are then stimulated with a TLR7 ligand (gardiquimod at a final concentration of 7.5 μM), TLR8 ligand (R848 at a final concentration of 15.9 μM) or TLR9 ligand (ODN2006 at a final concentration of 5 nM) to activate NF-κB and AP-1 which induce the production of SEAP. After a 22 hour incubation at 37° C., 5% CO2, SEAP levels are determined with the addition of HEK-Blue™ Detection reagent (Invivogen), a cell culture medium that allows for detection of SEAP, according to manufacturer's specifications. The percent inhibition is determined as the % reduction in the HEK-Blue signal present in wells treated with agonist plus DMSO alone compared to wells treated with a known inhibitor.

In the case of `Cc1c(-c2[nH]c3sc(N4CC5(C4)CN(C4COC4)C5)nc3c2C(C)C)cn2ncnc2c1C` [Example 302, 5-(7,8-dimethyl-[1,2,4]triazolo[1,5-a]pyridin-6-yl)-6-isopropyl-2-(6-(oxetan-3-yl)-2,6-diazaspiro[3.3]heptan-2-yl)-4H-pyrrolo[3,2-d]thiazole], the IC50 is reported as > 50 µM.
In the case of `Cc1c(-c2[nH]c3sc(C(=O)NCCCN4CCCC4=O)nc3c2C(C)C)cn2ncnc2c1C` [Example 371, 5-(7,8-dimethyl-[1,2,4]triazolo[1,5-a]pyridin-6-yl)-6-isopropyl-N-(3-(2-oxopyrrolidin-1-yl)propyl)-4H-pyrrolo[3,2-d]thiazole-2-carboxamide], the IC50 is reported as > 50 µM.
With `CNC(=O)CN1CCC(c2nc3c(C(C)C)c(-c4cn(C)c(=O)c(C)c4C)[nH]c3s2)CC1` [Example 63, 2-(4-(6-isopropyl-5-(1,4,5-trimethyl-6-oxo-1,6-dihydropyridin-3-yl)-4H-pyrrolo[3,2-d]thiazol-2-yl)piperidin-1-yl)-N-methylacetamide] the IC50 was > 50 µM.
In the case of `Cc1c(-c2[nH]c3sc(N4CCN(CC(N)=O)CC4)nc3c2C(C)C)cn2ncnc2c1C` [Example 285, 2-(4-(5-(7,8-dimethyl-[1,2,4]triazolo[1,5-a]pyridin-6-yl)-6-isopropyl-4H-pyrrolo[3,2-d]thiazol-2-yl)piperazin-1-yl)acetamide], the IC50 is reported as > 50 µM.
`Cc1c(-c2[nH]c3sc(CN4CCOCC4)nc3c2C(C)C)cn2ncnc2c1C` [Example 407, 4-((5-(7,8-dimethyl-[1,2,4]triazolo[1,5-a]pyridin-6-yl)-6-isopropyl-4H-pyrrolo[3,2-d]thiazol-2-yl)methyl)morpholine] was tested, and the IC50 was > 50 µM.
In the case of `Cc1cc(-c2[nH]c3sc(C(=O)NC4COC4)nc3c2C(C)C)cn2ncnc12` [Example 397, 6-isopropyl-5-(8-methyl-[1,2,4]triazolo[1,5-a]pyridin-6-yl)-N-(oxetan-3-yl)-4H-pyrrolo[3,2-d]thiazole-2-carboxamide], the IC50 is reported as > 50 µM.
`Cc1c(-c2[nH]c3sc(N4CCN(CC(=O)N(C)C)C[C@H]4C)nc3c2C(C)C)cn2ncnc2c1C` [Example 312, (R)-2-(4-(5-(7,8-dimethyl-[1,2,4]triazolo[1,5-a]pyridin-6-yl)-6-isopropyl-4H-pyrrolo[3,2-d]thiazol-2-yl)-3-methylpiperazin-1-yl)-N,N-dimethylacetamide] was tested, and the IC50 was > 50 µM.
With `Cc1cc(-c2[nH]c3sc(C(=O)N4CCCC4)nc3c2C(C)C)cn2ncnc12` [Example 393, (6-isopropyl-5-(8-methyl-[1,2,4]triazolo[1,5-a]pyridin-6-yl)-4H-pyrrolo[3,2-d]thiazol-2-yl)(pyrrolidin-1-yl) methanone] the IC50 was > 50 µM.
For `CC(C)c1c(-c2cn(C)c3ncccc23)[nH]c2sc(C3CCN(CCS(C)(=O)=O)CC3)nc12` [Example 33, 6-isopropyl-5-(1-methyl-1H-pyrrolo[2,3-b]pyridin-3-yl)-2-(1-(2-(methylsulfonyl)ethyl)piperidin-4-yl)-4H-pyrrolo[3,2-d]thiazole], the IC50 was > 50 µM.
With `Cc1c(-c2[nH]c3sc(N4CCN(CCS(C)(=O)=O)C[C@@H]4C)nc3c2C(C)C)cn2ncnc2c1C` [Example 344, (S)-5-(7,8-dimethyl-[1,2,4]triazolo[1,5-a]pyridin-6-yl)-6-isopropyl-2-(2-methyl-4-(2-(methylsulfonyl)ethyl)piperazin-1-yl)-4H-pyrrolo[3,2-d]thiazole] the IC50 was > 50 µM.
`COC1CN(C(=O)c2nc3c(C(C)C)c(-c4cc(C)c5ncnn5c4)[nH]c3s2)C1` [Example 396, (6-isopropyl-5-(8-methyl-[1,2,4]triazolo[1,5-a]pyridin-6-yl)-4H-pyrrolo[3,2-d]thiazol-2-yl)(3-methoxyazetidin-1-yl)methanone] was tested, and the IC50 was > 50 µM.
`Cc1c(-c2[nH]c3sc(C(=O)N4CCNC(=O)C4)nc3c2C(C)C)cn2ncnc2c1C` [Example 378, 4-(5-(7,8-dimethyl-[1,2,4]triazolo[1,5-a]pyridin-6-yl)-6-isopropyl-4H-pyrrolo[3,2-d]thiazole-2-carbonyl)piperazin-2-one] was tested, and the IC50 was > 50 µM.
With `Cc1c(-c2[nH]c3sc(N4CC5(CN(CCS(C)(=O)=O)C5)C4)nc3c2C(C)C)cn(C)c(=O)c1C` [Example 305, 5-(6-isopropyl-2-(6-(2-(methylsulfonyl)ethyl)-2,6-diazaspiro[3.3]heptan-2-yl)-4H-pyrrolo[3,2-d]thiazol-5-yl)-1,3,4-trimethylpyridin-2 (1H)-one] the IC50 was > 50 µM.
In the case of `Cc1c(-c2[nH]c3sc(N4CC5(C4)CN(C4COC4)C5)nc3c2C(C)C)cn(C)c(=O)c1C` [Example 306, 5-(6-isopropyl-2-(6-(oxetan-3-yl)-2,6-diazaspiro[3.3]heptan-2-yl)-4H-pyrrolo[3,2-d]thiazol-5-yl)-1,3,4-trimethylpyridin-2 (1H)-one], the IC50 is reported as > 50 µM.
`Cc1c(-c2[nH]c3sc(CN4CC5(CCOCC5)C4)nc3c2C(C)C)cn2ncnc2c1C` [Example 404, 2-((5-(7,8-dimethyl-[1,2,4]triazolo[1,5-a]pyridin-6-yl)-6-isopropyl-4H-pyrrolo[3,2-d]thiazol-2-yl)methyl)-7-oxa-2-azaspiro[3.5]nonane] was tested, and the IC50 was > 50 µM.
`CC(=O)N1CCC(c2nc3c(C(C)C)c(-c4cn5ncnc5c(C)c4C)[nH]c3s2)CC1` [Example 59, 1-(4-(5-(7,8-dimethyl-[1,2,4]triazolo[1,5-a]pyridin-6-yl)-6-isopropyl-4H-pyrrolo[3,2-d]thiazol-2-yl)piperidin-1-yl)ethan-1-one] was tested, and the IC50 was > 50 µM.
For `CNC(=O)CN1CCN(c2nc3c(C(C)C)c(-c4cn5ncnc5c(C)c4C)[nH]c3s2)[C@H](C)C1` [Example 315, (R)-2-(4-(5-(7,8-dimethyl-[1,2,4]triazolo[1,5-a]pyridin-6-yl)-6-isopropyl-4H-pyrrolo[3,2-d]thiazol-2-yl)-3-methylpiperazin-1-yl)-N-methylacetamide], the IC50 was > 50 µM.
In the case of `Cc1c(-c2[nH]c3sc(N4CCN(C5COC5)CC4)nc3c2C(C)C)cn2ncnc2c1C` [Example 286, 5-(7,8-dimethyl-[1,2,4]triazolo[1,5-a]pyridin-6-yl)-6-isopropyl-2-(4-(oxetan-3-yl)piperazin-1-yl)-4H-pyrrolo[3,2-d]thiazole], the IC50 is reported as > 50 µM.
With `Cc1cc(-c2[nH]c3sc(C(=O)N4CCCOCC4)nc3c2C(C)C)cn2ncnc12` [Example 394, (6-isopropyl-5-(8-methyl-[1,2,4]triazolo[1,5-a]pyridin-6-yl)-4H-pyrrolo[3,2-d]thiazol-2-yl)(1,4-oxazepan-4-yl)methanone] the IC50 was > 50 µM.
`Cc1c(-c2[nH]c3sc(CN4CC5(COC5)C4)nc3c2C(C)C)cn2ncnc2c1C` [Example 408, 6-((5-(7,8-dimethyl-[1,2,4]triazolo[1,5-a]pyridin-6-yl)-6-isopropyl-4H-pyrrolo[3,2-d]thiazol-2-yl)methyl)-2-oxa-6-azaspiro[3.3]heptane] was tested, and the IC50 was > 50 µM.
`Cc1c(-c2[nH]c3sc(CNCC(N)=O)nc3c2C(C)C)cn2ncnc2c1C` [Example 402, 2-(((5-(7,8-dimethyl-[1,2,4]triazolo[1,5-a]pyridin-6-yl)-6-isopropyl-4H-pyrrolo[3,2-d]thiazol-2-yl)methyl)amino)acetamide] was tested, and the IC50 was > 50 µM.
For `Cc1c(-c2[nH]c3sc(N4CCN(CC(=O)N(C)C)CC4)nc3c2C(C)C)cn2ncnc2c1C` [Example 283, 2-(4-(5-(7,8-dimethyl-[1,2,4]triazolo[1,5-a]pyridin-6-yl)-6-isopropyl-4H-pyrrolo[3,2-d]thiazol-2-yl)piperazin-1-yl)-N,N-dimethylacetamide], the IC50 was > 50 µM.
In the case of `CNC(=O)CN1CCN(c2nc3c(C(C)C)c(-c4cn5ncnc5c(C)c4C)[nH]c3s2)CC1` [Example 284, 2-(4-(5-(7,8-dimethyl-[1,2,4]triazolo[1,5-a]pyridin-6-yl)-6-isopropyl-4H-pyrrolo[3,2-d]thiazol-2-yl)piperazin-1-yl)-N-methylacetamide], the IC50 is reported as > 50 µM.
